Values of other authors, collected in PubChem BioAssay AID1259409 (Chemical Carcinogenesis Research Information System (CCRIS), 2018).

System: rodent chemically induced tumor inhibition, incidence and multiplicity
Assay: CCRIS tumor inhibitor studies
Conditions: for tumour outcome (control, treated, inhibition, significance): Route [Inhibitor]: ORAL; for outcome: Carcinogen: N,N-Diethylnitrosamine, Route [Inhibitor]: Intravenous, Species: Rat, Strain/Sex: Swiss-Albino/Male, Target Tissue: Type of Lesion: Liver: preneoplastic lesions, Promoter: None

## O=c1c(O)c(-c2ccc(O)c(O)c2)oc2cc(O)cc(O)c12
Carcinogen: DIETHYLNITROSAMINE, 55-18-5, N-METHYLNITROSOUREA, 684-93-5, 1,2-DIMETHYLHYDRAZINE, 540-73-8, N-BUTYL-N-(4-HYDROXYB, Carcinogen: DIETHYLNITROSAMINE, 55-18-5, N-METHYLNITROSOUREA, 684-93-5, 1,2-DIMETHYLHYDRAZINE, 540-73-8, N-BUTYL-N-(4-HYDROXYB, Dose [Inhibitor]: 0, 1% IN DIET FOR 32 WK BEGINNING POST CARCINOGEN TREATMENT (STUDY DURATION: 36 WK), Species: RAT, Strain/Sex: F344/MALE, Target Tissue: Type of Lesion: SMALL INTESTINE: ADENOMA, Dose [Carcinogen]: 100 MG/KG DEN ONCE, 20 MG/KG MNU 4 TIMES, 40 MG/KG DMH 4 TIMES, 0.05% BBN IN DRINKING WATER FOR 2 WK, 0.1% DHPN IN D, Dose [Carcinogen]: 100 MG/KG DEN ONCE, 20 MG/KG MNU 4 TIMES, 40 MG/KG DMH 4 TIMES, 0.05% BBN IN DRINKING WATER FOR 2 WK, 0.1% DHPN IN D, Promoter: NONE USED
  tumour outcome (control, treated, inhibition, significance): 6/14 (43%), 0/12 (0%), 100%, p<0.05
Carcinogen: DIETHYLNITROSAMINE, 55-18-5, N-METHYLNITROSOUREA, 684-93-5, 1,2-DIMETHYLHYDRAZINE, 540-73-8, N-BUTYL-N-(4-HYDROXYB, Carcinogen: DIETHYLNITROSAMINE, 55-18-5, N-METHYLNITROSOUREA, 684-93-5, 1,2-DIMETHYLHYDRAZINE, 540-73-8, N-BUTYL-N-(4-HYDROXYB, Dose [Inhibitor]: 0, 1% IN DIET FOR 32 WK BEGINNING POST CARCINOGEN TREATMENT (STUDY DURATION: 36 WK), Species: RAT, Strain/Sex: F344/MALE, Target Tissue: Type of Lesion: SMALL INTESTINE: CARCINOMA, Dose [Carcinogen]: 100 MG/KG DEN ONCE, 20 MG/KG MNU 4 TIMES, 40 MG/KG DMH 4 TIMES, 0.05% BBN IN DRINKING WATER FOR 2 WK, 0.1% DHPN IN D, Dose [Carcinogen]: 100 MG/KG DEN ONCE, 20 MG/KG MNU 4 TIMES, 40 MG/KG DMH 4 TIMES, 0.05% BBN IN DRINKING WATER FOR 2 WK, 0.1% DHPN IN D, Promoter: NONE USED
  tumour outcome (control, treated, inhibition, significance): 5/14 (36%), 0/12 (0%), 100%, p<0.05
Carcinogen: DIETHYLNITROSAMINE, 55-18-5, N-METHYLNITROSOUREA, 684-93-5, 1,2-DIMETHYLHYDRAZINE, 540-73-8, N-BUTYL-N-(4-HYDROXYBU, Carcinogen: DIETHYLNITROSAMINE, 55-18-5, N-METHYLNITROSOUREA, 684-93-5, 1,2-DIMETHYLHYDRAZINE, 540-73-8, N-BUTYL-N-(4-HYDROXYBU, Dose [Inhibitor]: 0, 1% IN DIET FOR 32 WK BEGINNING POST CARCINOGEN TREATMENT (STUDY DURATION: 36 WK), Species: RAT, Strain/Sex: F344/MALE, Target Tissue: Type of Lesion: LARGE INTESTINE: ADENOMA, Dose [Carcinogen]: 100 MG/KG DEN ONCE, 20 MG/KG MNU 4 TIMES, 40 MG/KG DMH 4 TIMES, 0.05% BBN IN DRINKING WATER FOR 2 WK, 0.1% DHPN IN D, Dose [Carcinogen]: 100 MG/KG DEN ONCE, 20 MG/KG MNU 4 TIMES, 40 MG/KG DMH 4 TIMES, 0.05% BBN IN DRINKING WATER FOR 2 WK, 0.1% DHPN IN D, Promoter: NONE USED
  tumour outcome (control, treated, inhibition, significance): 7/14 (50%), 3/12 (25%), 50%, not significant
Carcinogen: DIETHYLNITROSAMINE, 55-18-5, N-METHYLNITROSOUREA, 684-93-5, 1,2-DIMETHYLHYDRAZINE, 540-73-8, N-BUTYL-N-(4-HYDROXYBU, Carcinogen: DIETHYLNITROSAMINE, 55-18-5, N-METHYLNITROSOUREA, 684-93-5, 1,2-DIMETHYLHYDRAZINE, 540-73-8, N-BUTYL-N-(4-HYDROXYBU, Dose [Inhibitor]: 0, 1% IN DIET FOR 32 WK BEGINNING POST CARCINOGEN TREATMENT (STUDY DURATION: 36 WK), Species: RAT, Strain/Sex: F344/MALE, Target Tissue: Type of Lesion: LUNG: ADENOMA, Dose [Carcinogen]: 100 MG/KG DEN ONCE, 20 MG/KG MNU 4 TIMES, 40 MG/KG DMH 4 TIMES, 0.05% BBN IN DRINKING WATER FOR 2 WK, 0.1% DHPN IN D, Dose [Carcinogen]: 100 MG/KG DEN ONCE, 20 MG/KG MNU 4 TIMES, 40 MG/KG DMH 4 TIMES, 0.05% BBN IN DRINKING WATER FOR 2 WK, 0.1% DHPN IN D, Promoter: NONE USED
  tumour outcome (control, treated, inhibition, significance): 6/14 (43%), 3/12 (25%), 42%, not significant
55-18-5, Dose [Inhibitor]: 0.5 ml suspension of 0.2% tween 80 aqueous soln with 0.898 mM quercetin once a wk for 16 wk, Dose [Carcinogen]: 200 mg/kg bw in 0.5 ml olive oil three times at 15 day intervals beginning on wk 1
  outcome: 1205+/-102, 1111+/-56, not significant
55-18-5, Dose [Inhibitor]: 0.5 ml suspension of galactosylated liposomal quercitin, 0.898 mM, once a wk for 16 wk, study duration 18 wk, Dose [Carcinogen]: 200 mg/kg bw in 0.5 ml olive oil three times at end of 1st, 3rd and 5th wk, study duration 18 wk
  outcome: 1205+/-102, 361+/-22, significant
55-18-5, Dose [Inhibitor]: 0.5 ml suspension of liposomal quercitin, 0.898 mM, once a wk for 16 wk, study duration 18 wk, Dose [Carcinogen]: 200 mg/kg bw in 0.5 ml olive oil three times at end of 1st, 3rd and 5th wk, study duration 18 wk
  outcome: 1205+/-102, 861+/-81, significant
Carcinogen: N-BUTYL-N-(4-HYDROXYBUTYL)NITROSAMINE, 3817-11-6, Dose [Inhibitor]: 5% DIET DAILY FOR 34 WK STARTING AT COMPLETION OF CARCINOGEN TREATMENT (STUDY DURATION: 38 WK), Species: RAT, Strain/Sex: F344/MALE, Target Tissue: Type of Lesion: URINARY BLADDER: PAPILLOMA, Dose [Carcinogen]: 0.01% IN DRINKING WATER FOR 4 WK, Promoter: NONE USED
  tumour outcome (control, treated, inhibition, significance): 33%, 17%, 48%, not significant
Carcinogen: N-NITROSODIETHYLAMINE, 55-18-5, 2-ACETYLAMINOFLUORENE, 53-93-6, CARBON TETRACHLORIDE, 56-23-5, Carcinogen: N-NITROSODIETHYLAMINE, 55-18-5, 2-ACETYLAMINOFLUORENE, 53-93-6, CARBON TETRACHLORIDE, 56-23-5, Dose [Inhibitor]: 0, 1.5% IN DIET FOR 29 WK ADMINISTERED TO RATS BEARING PERSISTENT NODULES FOLLOWING CARCINOGEN TREATMENT (STUDY DURATION, Species: RAT, Strain/Sex: F344/MALE, Target Tissue: Type of Lesion: LIVER: HEPATOCELLULAR CARCINOMA, Dose [Carcinogen]: 200 MG/KG BW DEN ONCE, 0.002% 2-AAF IN DIET FOR 2 WK, 1 MG/KG BW CCL4 MIDWAY IN 2-AAF TREATMENT, Dose [Carcinogen]: 200 MG/KG BW DEN ONCE, 0.002% 2-AAF IN DIET FOR 2 WK, 1 MG/KG BW CCL4 MIDWAY IN 2-AAF TREATMENT, Promoter: NONE USED
  tumour outcome (control, treated, inhibition, significance): 7/8 (88%), 7/11 (64%), 27%, not significant
Carcinogen: N-NITROSODIETHYLAMINE, 55-18-5, 2-ACETYLAMINOFLUORENE, 53-93-6, CARBON TETRACHLORIDE, 56-23-5, Carcinogen: N-NITROSODIETHYLAMINE, 55-18-5, 2-ACETYLAMINOFLUORENE, 53-93-6, CARBON TETRACHLORIDE, 56-23-5, Dose [Inhibitor]: 0, 1.5% IN DIET FOR 29 WK ADMINISTERED TO RATS BEARING PERSISTENT NODULES FOLLOWING CARCINOGEN TREATMENT (STUDY DURATION, Species: RAT, Strain/Sex: F344/MALE, Target Tissue: Type of Lesion: LIVER: HEPATOCELLULAR CARCINOMA, Dose [Carcinogen]: 200 MG/KG BW DEN ONCE, 0.002% 2-AAF IN DIET FOR 2 WK, 1 ML/KG BW CCL4 MIDWAY IN 2-AAF TREATMENT, Dose [Carcinogen]: 200 MG/KG BW DEN ONCE, 0.002% 2-AAF IN DIET FOR 2 WK, 1 ML/KG BW CCL4 MIDWAY IN 2-AAF TREATMENT, Promoter: PHENOBARBITAL, 50-06-6
  tumour outcome (control, treated, inhibition, significance): 12/12 (100%), 13/14 (93%), 7%, not significant
Carcinogen: N-NITROSOMETHYLUREA, 684-93-5, Dose [Inhibitor]: 5.0% IN DIET BEGINNING 1 WK PRIOR TO CARCINOGEN DOSE AND CONTINUING FOR DURATION OF STUDY (STUDY DURATION: 21 WK), Species: RAT, Strain/Sex: SPRAGUE-DAWLEY/FEMALE, Target Tissue: Type of Lesion: MAMMARY GLAND: TUMOR, Dose [Carcinogen]: 50 MG/KG BW IN 0.9% SALINE AND 5% ACETIC ACID STABILIZER ONCE, Promoter: NONE USED
  tumour outcome (control, treated, inhibition, significance): 78%, 70%, 10%, not calculated
Dose [Inhibitor]: 0, 2000 PPM IN DIET BEGINNING 8 WK PRIOR TO CARCINOGEN AND CONTINUING FOR 6 WK POST CARCINOGEN (STUDY DURATION: 68 WK), Species: FISH, Strain/Sex: RAINBOW TROUT, Target Tissue: Type of Lesion: LIVER: HEPATOCELLULAR CARCINOMA, Dose [Carcinogen]: 20 PPB IN DIET FOR 2 WK, Promoter: NONE USED
  tumour outcome (control, treated, inhibition, significance): 43/118 (36%), 30/115 (26%), 27%, not significant
